Laboratory results published in patent US20260317388A1, “SELECTIVE NUCLEAR BLOCKADE FOR THE TREATMENT OF SEPSIS” (priority 2023, published 2026).
Positions of bridges follow the written chain, without caps; N, C: chain ends. Residues, ends and D or L forms follow the SMILES beside them.

How the values were obtained:
[1] = Solubility; type: physicochemical
[2] = tested on: sepsis; conditions: antibiotic-treated control group; cited from earlier work

Compound	solubility [1] [mg/mL]	water solubility and bioavailability relative to SN50 peptide ([1]; vs first generation NTCI (SN50 peptide)) [times]	survival with meropenem alone [2] [%]
CSCC[C@@H]1NC(=O)[C@H](CC(C)C)NC(=O)[C@H](CCCCN)NC(=O)[C@H](CCC(N)=O)NC(=O)[C@H](CCCNC(=N)N)NC(=O)[C@H](CCCCN)NC(=O)[C@H](CCCNC(=N)N)NC(=O)[C@H](CCC(N)=O)NC(=O)[C@H](C(C)C)NC(=O)[C@@H](NC(=O)[C@@H]2CCCN2C(=O)[C@H](C)NC(=O)[C@H](CC(C)C)NC(=O)[C@H](CC(C)C)NC(=O)[C@H](C)NC(=O)[C@H](CC(C)C)NC(=O)[C@H](CC(C)C)NC(=O)[C@@H](NC(=O)[C@H](C)NC(=O)[C@@H]2CCCN2C(=O)[C@H](CC(C)C)NC(=O)[C@H](CC(C)C)NC(=O)[C@H](C)NC(=O)[C@@H](NC(=O)[C@H](C)NC(=O)[C@H](C)N)C(C)C)C(C)C)CSSC[C@@H](C(=O)O)NC(=O)[C@@H]2CCCN2C1=O [cSN50.1] (H-AAVALLPAVLLALLAPCVQRKRQKLMPC-OH; disulfide 17-28)	≥ 100	8	
C[C@@H](O)[C@H]1C(=O)N2C(C(=O)O)=C(S[C@@H]3CN[C@H](C(=O)N(C)C)C3)[C@H](C)[C@H]12 [meropenem]			30
